According to US7635709B2, “Compositions and methods for bowel care in individuals with chronic intestinal pseudo-obstruction” (priority 2002, dated 2009):

How the values were obtained:
[1] = tested on: patients with acute colonic pseudo-obstruction; conditions: Ponec et al. 1999; cited from earlier work
[2] = tested on: persons with SCI; experiment: Airway resistance by forced oscillation technique in thirteen SCI subjects (Example 3); format: in vivo, human; conditions: IV bolus 2 mg neostigmine
Description: (§1) On separate days, subjects were given by IV bolus either (i) 2 mg neostigmine alone, (ii) a combination of 2 mg neostigmine and 0.4 mg glycopyrrolate, or (iii) normal saline. Subjects were blinded to the type of infusion being delivered. The effect of these infusions on bowel evacuation was assessed semi-quantitatively on a scale of 0 (no evacuation) to 4+ (complete evacuation) using video fluoroscopy after rectal instillation of a barium-oatmeal paste having a consistency similar to that of stool. Blood pressure, heart rate and other vital signs were monitored in each subject. In addition, airway resistances were determined in each subject using the forced oscillation technique (as described, for example, in Goldman, Pulm. Pharmacol. Ther., 14(5):341-350, 2001). Total airway resistance was determined using 5 Hz forced oscillations, and central airway resistance was determined using 20 Hz forced oscillations.

[3] = tested on: persons with SCI; experiment: Heart rate, blood pressure and side effects monitoring in thirteen SCI subjects (Example 3); format: in vivo, human; conditions: IV bolus 2 mg neostigmine, with or without 0.4 mg glycopyrrolate, 13 SCI subjects
Description: (§2) Thirteen (13) persons with SCI (5 quadriplegics, 8 paraplegics) with a mean age of 46 years (range 25-69) and mean duration of injury of 16 years (range 1-31) were treated. None of the subjects had known heart disease and/or history of arrhythmias.
as §1

[4] = tested on: persons with SCI; experiment: Bowel evacuation score by video fluoroscopy after rectal barium-oatmeal paste in thirteen SCI subjects (Example 3); format: in vivo, human; conditions: IV bolus 2 mg neostigmine, with or without 0.4 mg glycopyrrolate, 13 SCI subjects
Description: as §2, §1
This response received a 0 (zero) bowel evacuation score. FIGS. 1B-1E show progressively increasing bowel evacuation responses in different subjects. The responses in FIGS. 1B-1E correspond to bowel evacuation scores of 1+, 2+, 3+, and 4+, respectively.

CN(C)C(=O)Oc1cccc([N+](C)(C)C)c1 [neostigmine]
passage of flatus or stool with reduction in abdominal distention [1]: most patients successfully passed flatus or stool | total airway resistance, increase over baseline ([2]; 5 Hz forced oscillations): approximately 25.5% | central airway resistance, increase over baseline ([2]; 20 Hz forced oscillations): approximately 18.4% | change in blood pressure after administration [3]: No change | other side effects (muscle twitching, sweating, vague abdominal sensations, salivation) [3]: transient and minimal | mean lowest heart rate measured ([3]; p=0.02 between groups): about 49 BMP | subjects with prompt and complete evacuation [4]: 57 % of subjects | time of evacuation post infusion, mean [4]: 11 min | mean bowel evacuation score ([4]; scale 0 (no evacuation) to 4+ (complete evacuation)): about 2.29
